Test results from patent publication US20150343016A1, “CHEMICAL ENTITIES AND THERAPEUTIC USES THEREOF” (The Regents of the University of Colorado, a body corporate, priority 2010, published 2015).
Entries after “also recorded” stand apart in the source; their conditions may differ. Where two headings read alike, the source gives them in different places.

Legend:
Det562 cells = assay: MTT assay, Bouvardin with ionizing radiation, Det562 (same-day treatment); assay type: cell-based, human
Protocol: “Combination Index” computation. Combination Indices were calculated using CalcuSyn software (Biosoft), which uses the method of Chou and Talalay. This method first computes drug-induced effect using the Hill Equation: where E is the measured effect; C is the drug concentration; Emax is the full range of drug effect, usually at or near 100%; IC50 is the drug concentration producing the median effect of 50%; and n is the curve shape parameter describing the steepness of the concentration-effect relationship. The Chou and Talalay method then linearizes the Hill Equation by logarithmic transformation as: where fu is the fraction of cells left unaffected after drug exposure, fa is the fraction of cells affected by the exposure, C is the drug concentration used, Cm is the concentration to achieve the median effect, and n is the curve shape parameter. Cm and n are equivalent to IC50 and n, respectively, in the Hill Equation. The values of n (obtained from the slope), nlog(Cm) (obtained from the absolute value of the intercept), and, therefore, Cm are obtained by plotting log(fu−1−1) versus log(C). These numbers are then used to compute the Combination Index (CI) according to the formula: CI=(D)1/(Dx)1+(D)2/(Dx)2 (26). (Dx)1 and (Dx)2 are the doses required to achieve a given effect level for each treatment, i.e. a specified value of Fraction Affected or Fa. (D)1 and (D)2 are the doses of each treatment in a given combination which gives the same Fa.
For FIG. 19 MTT assays were used to determine the effect of Bouvardin (concentrations in uM) in combination with ionizing radiation (in Gy). The data from same-day treatment of IR and Bouvardin are shown, for comparison with taxol-Bouvardin combination that were also applied on the same day. In general, CI values were lower for FaDu cells than for Det562 cells in two separate experiments (only one set is shown). On Det562 cells, CI values were about 1 for most combinations. CI value for Det562 cells at 0.001 uM/1Gy and at >0.06 uM are not included in the graph because the values are >10 and would have made smaller values harder to see. On FaDu cells, CI values were below 1 at concentrations of 0.03 or lower, were about 1 for 0.06 uM drug, and were over 1 at higher concentrations.
The growth inhibitory effects of Bouvardin with ionizing radiation (IR) were evaluated using a modified tetrazolium salt (MTT) assay. In the MTT assay, 1,000 to 2,000 viable cells were plated in 100 uL of growth medium in 96-well plates (Corning, Ithaca, N.Y.). Following an overnight incubation, drug was added in varying concentrations and the plates were irradiated on the same day (co-treatment) or 24 hr later (pre-treatment) and incubated for 6 to 7 days. The tetrazolium salt was added at a concentration of 0.4 mg/mL to each well following the 6- to 7-day treatment. The plates were incubated with the salt for 4 hours at 37° C. At 4 hours, the medium was aspirated off, leaving the dark blue formazan product at the bottom of the wells. The reduced MTT product was solubilized by adding […] of 0.2 N HCl in 75% isopropanol, 23% MilliQ water to each well. Thorough mixing was done using a Titertek multichannel pipetman. The absorbency of each well was measured using an automated plate reader (Molecular Devices, Sunnyvale, Calif.). All experiments were done in triplicate.

H157 tumor xenografts = H157 tumor xenografts in athymic mice, Bouvardin with radiation; assay type: in vivo
Excerpt: The effectiveness of Bouvardin, IR and the combination of the two was next assessed in H157 tumor xenografts (FIG. 17B). […] Similar results were obtained in a repeat experiment (not shown). […] Bouvardin enhances the effect of radiation in Drosophila mutant larvae, human cancer cells and tumor xenografts in mice. The choice of drug concentration would be critical.
In FIG. 17 (A) Clonogenic assays were used to confirm the effects of Bouvardin in combination with radiation in H157 cells. Cells were plated in 6 well plates at 1,000 cells per well. 24 hours later, various doses of (1 nM, 5 nM and 10 nM) of Bouvardin were added with media alone as a control. 24 hours after the addition of Bouvardin, the cells were irradiated at 0, 2, 4 and 6 Gy. Colonies were allowed to form for 2 weeks and then counted. The results are shown as a percentage of control (no drug, no IR). Error bar=±1SEM. (B) The effect of Bouvardin (Bvd) and radiation on H157 xenografts in athymic mice. Bouvardin treatment began when tumors had reached approximately 200 mm3. Bouvardin was administered intraperitonealy twice a week, and radiation was administered 24 hr after each drug administration Animals in control and drug-only groups had tumors that were too large and had to be sacrificed on day 26. Treatment continued for the other two groups for one more week. The difference in tumor volume between combination-treated group and radiation only group was statistically significant at day 30 (p=0.0387 on day 30; upaired two tailed t-test). The difference in tumor volume between combination-treated group and radiation only group remains on day 33 but is less significant (p=0.0967; upaired two tailed t-test). N=10 per group. The data points indicate mean tumor volumes ±1SEM.
Six to 8-week-old female nude athymic mice were purchased from Harlan Laboratories and housed in a pathogen-free facility approved by the American Association for the Accrediation of Laboratory Animal Care and met all current regulations and standards of the U.S. Department of Agriculture, the U.S. Department of Health and Human Services and the National Institutes of Health Animal procedures were carried out in accordance with a protocol approved by the Institutional Animal Care and Use Committee of the University of Colorado. Cancer cells were grown to 80% confluence and harvested by trypsinization. Trypsin was neutralized with complete medium containing FBS. […] Mice were treated for 3 weeks, and tumor growth was measured until volume exceeded 2 cm3, when animals were euthanized. Tumor volume was measured on Tuesdays and Fridays. Tumor volume was calculated using the formula V=a2×b/2, where a and b are the smallest and largest tumor diameters, respectively, as determined using calipers.

## COc1ccc(C[C@H]2C(=O)N[C@H](C)C(=O)N(C)[C@@H]3C(=O)N(C)[C@@H](Cc4ccc(O)c(c4)Oc4ccc(cc4)[C@H]3O)C(=O)N[C@@H](C)C(=O)N[C@H](C)C(=O)N2C)cc1 (stereo in doubt) [Bouvardin, bouvardin]
Det562 cells
  interaction of Bouvardin with IR: a wide range of effects, synergistic to antagonistic
Det562 cells; 0.001 uM/1Gy
  CI value, Bouvardin with IR: > 10
Det562 cells; at >0.06 uM
  CI value, Bouvardin with IR: > 10
Det562 cells; listed as bouvardin
  interaction of Bouvardin with IR: synergizes with ionizing radiation
Det562 cells; most combinations
  CI values, Bouvardin with IR: about 1
H157 tumor xenografts; 0.2 mg/kg + radiation 24 hr after each drug administration, p=0.0387 on day 30, p=0.0967 on day 33
  tumor control, drug with radiation versus radiation alone: improved control of tumor volume in a statistically significant manner; also recorded: enhanced the effect of IR
H157 tumor xenografts; 0.2 mg/kg intraperitonealy twice a week
  tumor control, drug alone: had little effect on its own
H157 tumor xenografts; 0.4 mg/kg
  tumor control, drug alone: shows tumor control; also recorded: had effect on its own
H157 tumor xenografts; 0.4 mg/kg + radiation
  tumor control, drug with radiation versus radiation alone: did not enhance the effect of radiation; also recorded: did not enhance the effect of IR
